Data on 23 compounds can be found in US8445512B2, “Substituted quinoline-3-carboxamides as KCNQ2/3 modulators” (Gruenenthal GmbH, priority 2010, dated 2013).

The experiment addresses T1, KCNQ2/3 channels (Homo sapiens, UniProt O43525+O43526).
T1 construct: expressed in transfected cells
Kind of experiment: Fluorescence assay using a voltage sensitive dye (fluorimetry). The class given is cell-based. To be noted: CHO-K1 cells expressing KCNQ2/3 channels; for Emax: relative to retigabine = 100%, read-out: Fluorimetry % efficacy (retigabine = 100%). As to the method:
Method I. Fluorescence Assay Using a Voltage Sensitive Dye (Fluorimetry)
[…] CHO-K1 cells expressing KCNQ2/3 channels are cultivated adherently at 37° C., 5% CO2 and 95% humidity in cell culture bottles (e.g. 80 cm^2 TC flasks, Nunc) with DMEM-high glucose (Sigma Aldrich, D7777) including 10% FCS (PAN Biotech, e.g. 3302-P270521) or alternatively MEM Alpha Medium (1×, liquid, Invitrogen, #22571), 10% fetal calf serum (FCS) (Invitrogen, #10270-106, heat-inactivated) and the necessary selection antibiotics.
Before being sown out for the measurements, the cells are washed with 1×DPBS buffer Ca^2+/Mg^2+-free (e.g. Invitrogen, #14190-094) and detached from the bottom of the culture vessel by using Accutase (PAA Laboratories, #L11-007) (incubation with Accutase for 15 min at 37° C.). The cell number is determined using a CASY™ cell counter (TCC, Schärfe System). Depending on the optimal density for each individual cell line, 20,000-30,000 cells/well/100 μl are seeded onto 96-well Corning™ CellBIND™ assay plates (Flat Clear Bottom Black Polystyrene Microplates, #3340). Freshly seeded cells are then left to settle for one hour at room temperature, followed by incubation for 24 hours at 37° C., 5% CO2 and 95% humidity.
The voltage-sensitive fluorescent dye from the Membrane Potential Assay Kit (Red™ Bulk format part R8123 for FLIPR, MDS Analytical Technologies™) is prepared by dissolving the contents of one vessel Membrane Potential Assay Kit Red Component A in 200 ml of extracellular buffer (ES buffer, 120 mM NaCl, 1 mM KCl, 10 mM HEPES, 2 mM CaCl2, 2 mM MgCl2, 10 mM glucose; pH 7.4). After removal of the nutrient medium, the cells are washed once with 200 μl of ES buffer, then loaded for 45 min at room temperature in 100 μl of dye solution in the dark.
Fluorescence measurements are carried out in a BMG Labtech FLUOstar™, BMG Labtech NOVOstar™ or BMG Labtech POLARstar™ instrument (525 nm excitation, 560 nm emission, Bottom Read mode). After incubation with the dye, 50 μl of the test substances in the desired concentrations, or 50 μl of ES buffer for control purposes, are applied to the wells of the assay plate and incubated for 30 min at room temperature while being shielded from light. The fluorescence intensity of the dye is then measured for 5 min and the fluorescence value F1 of each well is thus determined at a given, constant time. 15 μl of a KCl solution are then added to each well (final concentration of potassium ions 92 mM). The change in fluorescence intensity is subsequently monitored until all the relevant values have been obtained (mainly 5-30 min). At a given time post KCl application, a fluorescence value F2 is determined, in this case at the time of the fluorescence peak.
For calculation, the fluorescence intensity F2 is corrected for the fluorescence intensity F1, and the activity (ΔF/F) of the target compound on the potassium channel is determined as follows:
In order to determine whether a substance has agonistic activity,
[formula] can be related to
[formula] of control wells.
[formula] is determined by adding to the well only the buffer solution instead of the test substance, determining the value F1K of the fluorescence intensity, adding the potassium ions as described above, and measuring a value F2K of the fluorescence intensity. F2K and F1K are then calculated as follows: […]
A substance has an agonistic activity on the potassium channel if
[formula] is greater than
Independently of the comparison of
[formula] it is possible to conclude that a target compound has agonistic activity if
[formula] increases dose dependently. Calculations of EC50 and IC50 values are carried out with the aid of ‘Prism v4.0’ software (GraphPad Software™) Method II. Low-Intensity Tail Flick Test (Rat)

Molecules are shown by their SMILES. pEC50: −log10 of the molar value.

For the compound `CCc1nc2cc(C#N)ccc2c(C)c1C(=O)NCc1cccc(F)c1` [Example 33, 7-Cyano-2-ethyl-N-[(3-fluorophenyl)-methyl]-4-methyl-quinoline-3-carboxylic acid amide], the pEC50 is 5.99 and the Emax was found to be 121%.
Taken in the same sequence, the figures for `CC(C)c1nc2cc(C(F)(F)F)ccc2cc1C(=O)NCc1cccc(F)c1` [Example 11, N-[(3-Fluorophenyl)-methyl]-2-isopropyl-7-(trifluoromethyl)-quinoline-3-carboxylic acid amide] were 6.61 and 166%.
Taken in the same sequence, the figures for `Cc1c(C(=O)NCc2cccc(F)c2)c(CC(C)C)nc2cc(C(F)(F)F)ccc12` [Example 36, N-[(3-Fluorophenyl)-methyl]-4-methyl-2-(2-methyl-propyl)-7-(trifluoromethyl)-quinoline-3-carboxylic acid amide] were 7.09 and 154%.
On the same counts, the results for `Cc1c(C(=O)NCc2cccc(F)c2)c(CC(C)(C)C)nc2cc(C(F)(F)F)ccc12` [Example 18, 2-(2,2-dimethyl-propyl)-N-[(3-fluorophenyl)-methyl]-4-methyl-7-(trifluoromethyl)-quinoline-3-carboxylic acid amide] are 7.04 and 187%.
Turning to `CCCc1nc2cc(C(F)(F)F)ccc2c(C)c1C(=O)NCC1CCCCCC1` [Example 2, N-(Cycloheptyl-methyl)-4-methyl-2-propyl-7-(trifluoromethyl)-quinoline-3-carboxylic acid amide], the pEC50 is 6.49 and the Emax is 104%.
As for `Cc1c(C(=O)NCc2cccc(F)c2)c(C2CCCC2)nc2cc(C(F)(F)F)ccc12` [Example 20, 2-Cyclopentyl-N-[(3-fluorophenyl)-methyl]-4-methyl-7-(trifluoromethyl)-quinoline-3-carboxylic acid amide], the pEC50 is 7.31 and the Emax amounted to 185%.
Regarding `CCc1nc2cc(C(F)(F)F)ccc2c(C)c1C(=O)NCc1ccc(C)c(F)c1` [Example 34, 2-Ethyl-N-[(3-fluoro-4-methyl-phenyl)-methyl]-4-methyl-7-(trifluoromethyl)-quinoline-3-carboxylic acid amide], the pEC50 is 6.51 and the Emax came out at 139%.
Taken in the same sequence, the figures for `Cc1c(C(=O)NCc2cccc(F)c2)c(CN(C)C)nc2cc(C(F)(F)F)ccc12` [Example 31, 2-(dimethylaminomethyl)-N-[(3-fluorophenyl)-methyl]-4-methyl-7-(trifluoromethyl)-quinoline-3-carboxylic acid amide] were 5.73 and 40%.
On to `CC(C)=Cc1nc2cc(C(F)(F)F)ccc2c(C)c1C(=O)NCc1cccc(F)c1` [Example 24, N-[(3-fluorophenyl)-methyl]-4-methyl-2-(2-methyl-prop-1-enyl)-7-(trifluoromethyl)-quinoline-3-carboxylic acid amide], for which the pEC50 is 6.79 and the Emax stood at 171%.
`CCc1nc2cc(C(F)(F)F)ccc2c(C)c1C(=O)NCc1ccc(F)c(C)c1` [Example 32, 2-Ethyl-N-[(4-fluoro-3-methyl-phenyl)-methyl]-4-methyl-7-(trifluoromethyl)-quinoline-3-carboxylic acid amide]: the pEC50 is 6.50 and the Emax is 133%.
Take `CC(C)(C)c1nc2cc(C(F)(F)F)ccc2cc1C(=O)NCc1cccc(F)c1` [Example 13, 2-tert-Butyl-N-[(3-fluorophenyl)-methyl]-7-(trifluoromethyl)-quinoline-3-carboxylic acid amide]: the pEC50 was 6.08 and the Emax is 125%.
As for `Cc1c(C(=O)NCc2ccc(F)cc2)c(C(C)C)nc2cc(C#N)ccc12` [Example 40, 7-Cyano-N-[(4-fluorophenyl)-methyl]-2-isopropyl-4-methyl-quinoline-3-carboxylic acid amide], the pEC50 is 6.72 and the Emax is 163%.
On the same counts, the results for `CCCc1nc2cc(C(F)(F)F)ccc2c(C)c1C(=O)NCc1cccs1` [Example 1, 4-Methyl-2-propyl-N-(thiophen-2-yl-methyl)-7-(trifluoromethyl)-quinoline-3-carboxylic acid amide] are 6.80 and 140%.
Consider `CCCc1nc2cc(C(F)(F)F)ccc2c(C)c1C(=O)NCc1cccc(F)c1` [Example 4, N-[(3-Fluorophenyl)-methyl]-4-methyl-2-propyl-7-(trifluoromethyl)-quinoline-3-carboxylic acid amide], for which the pEC50 was 7.03 and the Emax was 138%.
Taken in the same sequence, the figures for `Cc1c(C(=O)NCc2cccc(F)c2)c(C2CC2)nc2cc(C#N)ccc12` [Example 37, 7-Cyano-2-cyclopropyl-N-[(3-fluorophenyl)-methyl]-4-methyl-quinoline-3-carboxylic acid amide] were 6.97 and 128%.
Taken in the same sequence, the figures for `Cc1c(C(=O)NCc2cccc(F)c2)c(C(C)C)nc2cc(C#N)ccc12` [Example 39, 7-Cyano-N-[(3-fluorophenyl)-methyl]-2-isopropyl-4-methyl-quinoline-3-carboxylic acid amide] were 6.67 and 174%.
On the same counts, the results for `CC(C)(C)c1nc2cc(C(F)(F)F)ccc2cc1C(=O)NCc1ccc(F)cc1` [Example 14, 2-tert-Butyl-N-[(4-fluorophenyl)-methyl]-7-(trifluoromethyl)-quinoline-3-carboxylic acid amide] are 6.13 and 144%.
Turning to `CCCc1nc2cc(C(F)(F)F)ccc2c(C)c1C(=O)NCCCC(C)(C)C` [Example 22, N-(4,4-Dimethyl-pentyl)-4-methyl-2-propyl-7-(trifluoromethyl)-quinoline-3-carboxylic acid amide], the pEC50 is 6.73 and the Emax was 277%.
On to `CCc1nc2cc(C#N)ccc2c(C)c1C(=O)NCc1ccc(F)cc1` [Example 35, 7-Cyano-2-ethyl-N-[(4-fluorophenyl)-methyl]-4-methyl-quinoline-3-carboxylic acid amide], for which the pEC50 was 6.24 and the Emax amounted to 97%.
On the same counts, the results for `C/C=C/c1nc2cc(C(F)(F)F)ccc2c(C)c1C(=O)NCc1cccc(F)c1` [Example 23, N-[(3-fluorophenyl)-methyl]-4-methyl-2-[(E)-prop-1-enyl]-7-(trifluoromethyl)-quinoline-3-carboxylic acid amide] are 6.35 and 130%.
On the same counts, the results for `CC(C)c1nc2cc(C(F)(F)F)ccc2cc1C(=O)NCc1ccc(F)cc1` [Example 12, N-[(4-Fluorophenyl)-methyl]-2-isopropyl-7-(trifluoromethyl)-quinoline-3-carboxylic acid amide] are 6.82 and 137%.
With `Cc1c(C(=O)NCc2cccc(F)c2)c(CO)nc2cc(C(F)(F)F)ccc12` [Example 17, N-[(3-fluorophenyl)-methyl]-2-(hydroxymethyl)-4-methyl-7-(trifluoromethyl)-quinoline-3-carboxylic acid amide], the pEC50 was 5.54 and the Emax was 102%.
Take `Cc1c(C(=O)NCc2ccc(F)cc2)c(CC(C)(C)C)nc2cc(C(F)(F)F)ccc12` [Example 19, 2-(2,2-Dimethyl-propyl)-N-[(4-fluorophenyl)-methyl]-4-methyl-7-(trifluoromethyl)-quinoline-3-carboxylic acid amide]: the pEC50 was 6.92 and the Emax amounted to 149%.

The term pEC50 denotes −log10 of the EC50, conventionally taken in molar units. Low values mean a large EC50, high ones a small EC50.
